# Source: PMC6513986, “Molecular basis for heat desensitization of TRPV1 ion channels” (Nature Communications, 2019)
# Assays:
# mV1_654 (ANAP) = mV1_654 (ANAP) (Mus musculus, UniProt Q704Y3, Y654X); experiment: Agonist activation of ANAP-incorporated channel, patch clamp; type: cell-based
# platypus TRPV1 (pV1) = platypus TRPV1 (pV1) (Ornithorhynchus anatinus, UniProt F7A7B4); experiment: Agonist activation, patch clamp, HEK293T; type: cell-based; conditions: whole-cell, 3 mM
# mV1_651 (ANAP) = mV1_651 (ANAP) (Mus musculus, UniProt Q704Y3, T651X); experiment: Agonist activation of ANAP-incorporated channel, patch clamp; type: cell-based
# pV1_241 (ANAP) = pV1_241 (ANAP) (Ornithorhynchus anatinus, UniProt F7A7B4); experiment: as above; type: cell-based, platypus
# mV1_579 (ANAP) = mV1_579 (ANAP) (Mus musculus, UniProt Q704Y3, C579X); experiment: as above; type: cell-based
# mV1_648 (ANAP) = mV1_648 (ANAP) (Mus musculus, UniProt Q704Y3, L648X); experiment: as above; type: cell-based
# mV1_685 (ANAP) = mV1_685 (ANAP) (Mus musculus, UniProt Q704Y3, E685X); experiment: as above; type: cell-based
# mV1_630 (ANAP) = mV1_630 (ANAP) (Mus musculus, UniProt Q704Y3, S630X); experiment: as above; type: cell-based
# pV1_643 (ANAP) = pV1_643 (ANAP) (Ornithorhynchus anatinus, UniProt F7A7B4, S634X)
# mV1_241 (ANAP) = mV1_241 (ANAP) (Mus musculus, UniProt Q704Y3, K241X); experiment: Agonist activation of ANAP-incorporated channel, patch clamp; type: cell-based
# [1] = Emission peak of free ANAP at different temperatures; type: physicochemical; conditions: n=3
# Excerpt: ANAP fluorescence was excited by the Ar laser with a 375/28 excitation filter, T400lp dichroic mirror, and 435LP emission filter on an inverted fluorescence microscope (Nikon TE2000-U) using a ×40 oil-immersion objective (numerical aperture (NA) 1.3). Emission spectrum of ANAP was imaged with an Acton SpectraPro 2150i spectrograph in conjunction with an Evolve 512 EMCCD camera. The emission peak value was found by fitting the spectrum with a skewed Gauss distribution.
2APB activation (mV1_654 (ANAP)),activation of pV1 by 2-APB (platypus TRPV1 (pV1); listed as 2-APB),activation of pV1 by 2-APB (platypus TRPV1 (pV1); listed as 2-aminoethoxydiphenyl borate),2APB activation (mV1_651 (ANAP)),2APB activation (pV1_241 (ANAP)),2APB activation (mV1_579 (ANAP)),2APB activation (mV1_648 (ANAP)),2APB activation (mV1_685 (ANAP)),2APB activation (mV1_630 (ANAP)),2APB activation (pV1_643 (ANAP)),2APB activation (mV1_241 (ANAP)),change of emission spectrum during heating [1],Structure (SMILES)
Yes,currents elicited,directly activated,Yes,Yes,Yes,Yes,Yes,Yes,Yes,Yes,,"NCCOB(c1ccccc1)c1ccccc1 [2APB, 2-aminoethoxydiphenyl borate]"
,,,,,,,,,,,no change,"CC(=O)c1ccc2cc(NCC(N)C(=O)O)ccc2c1 (stereo not drawn) [free ANAP, 3-(6-acetylnaphthalen-2-ylamino)-2-aminopropanoic acid]"
